# In publication PMC8985176, “Structural transformation of methasterone with Cunninghamella blakesleeana and Macrophomina phaseolina” (RSC Advances, 2022):
# Where two headings read alike, the source gives them in different places.
# Tests used:
# [1] = system: MCF-7 (breast cancer) cell line; assay: Cytotoxicity MTT assay, MCF-7 cells; assay type: cell-based; conditions: Homo sapiens, MCF7, 48 h
# Protocol: (§1) MCF-7 (breast cancer), NCI-H460 (lung cancer), HeLa (cervical cancer) cell lines, and BJ (normal human fibroblast) cell lines were collected from cell culture biobank (PCMD, ICCBS). DMEM medium was used for MCF-7, HeLa, and BJ, and RPMI (ATCC modified medium) was used for NCI-H460. The media was supplemented with 10% FBS, 100 IU mL^−1 of penicillin, and 100 μg mL^−1 of streptomycin, and kept at 37 °C in a 5% CO2 incubator. The inhibition was investigated by MTT assay. Briefly, 100 μL per well of cell solutions (10 × 10^4 cells per mL MCF-7 cells, 5 × 10^4 cells per mL NCI-H460 cells, 6 × 10^4 cells per mL HeLa cells, or 5 × 10^4 cells per mL BJ cells), were added into 96-well plate and incubated for 24 h at 37 °C, before treatment with 6.25–50 μM of compounds or positive control doxorubicin for 48 h. After this, 20 μL of MTT (5 mg mL^−1) was added to each well and then incubated for 4 h at 37 °C. Then 100 μL DMSO was added to each well to dissolve the purple formazan crystal. The absorbance was analyzed at 570 nm (MCF-7, NCI-H460, and HeLa) or 550 nm (BJ) using an ELISA plate reader.
# [2] = system: NCI-H460 (lung cancer) cell line; assay: Cytotoxicity MTT assay, NCI-H460 cells; assay type: cell-based; conditions: Homo sapiens, 48 h
# Protocol: as §1
# [3] = system: nitric oxide (NO) production; assay: Nitric oxide (NO) production inhibitory assay (Griess method, LPS-stimulated J774.2 macrophages); assay type: cell-based, mouse
# Protocol: The J774.2 cell line (mouse macrophage) was obtained from (European Collection of Cell Cultures, Salisbury, UK). It was cultivated in […] flasks (IWAKI, Asahi Techno Glass, Shizuoka, Japan), containing DMEM (Sigma-Aldrich, Steinheim, Germany) and fetal bovine serum (FBS) (10%) (GIBCO, New York, NY, USA) and 1% streptomycin/penicillin, and were incubated in 5% CO2 at 37 °C. Fully-grown cells (10^6 cells per mL) were transferred into the 96-well plate, and NO synthase was added into the wells by E. coli (30 μg mL^−1) lipopolysaccharide (LPS) (DIFCO Laboratories, Detroit, MI, USA) for NO production. Samples were tested with different concentrations (1, 10, and 25 μg mL^−1), and placed in CO2 (5%) at 37 °C. N^G monomethyl L-arginine acetate (LNMMA) was used as a standard NO inhibitor. Griess method was used to analyze the accumulation of nitrite in the cells.[35] IC50 values were calculated by a Microsoft Excel-based formula.
# [4] = Cytotoxicity MTT assay, BJ cells; assay type: cell-based; conditions: human, BJ normal human fibroblast cells, μM converted to μg mL^−1, read-out: IC50 cytotoxicity against human normal cell line (BJ)
# Protocol: as §1
# [5] = system: HeLa (cervical cancer) cell line; assay: Cytotoxicity MTT assay, HeLa cells; assay type: cell-based; conditions: Homo sapiens, 48 h
# Protocol: as §1
# [6] = J774.2 mouse macrophages, LPS 30 μg mL^−1, Griess method, read-out: IC50 against nitric oxide (NO) production
SMILES,inhibition at 50 µM [1],inhibition at 50 µM [2],"IC50 [3, 6]",IC50 at 48 h [4],inhibition at 50 µM [5],melting point,"IC50 ([3]; Mus musculus, J774.2, read-out: IC50 against nitric oxide (NO) production)","IC50 against nitric oxide (NO) production ([3]; J774.2 mouse macrophages, LPS 30 μg mL^−1, Griess method)",IC50 ([2]; read-out: IC50 against NCI-H460)
"CC1CC2(C)C(CCC3C2CCC2(C)C3CCC2(C)O)CC1=O (centres unmarked) [Compound 1, methasterone]",< 50%,< 50%,23.9 ± 0.2 µg/mL,8.01 ± 0.52 µg/mL,< 50%,–,–,–,–
"C[C@@H]1C[C@@]2(C)[C@H](CC1=O)[C@H](O)[C@H](O)[C@@H]1[C@@H]2CC[C@@]2(C)[C@H]1CC[C@]2(C)O [Compound 2, 6β,7β,17β-Trihydroxy-2α,17α-dimethyl-5α-androstane-3-one]",< 50%,< 50%,38.1 ± 0.5 µg/mL,–,< 50%,139 to 141 °C,–,–,–
"CC1CC2(C)C(CC1=O)C(O)CC1C3CCC(C)(O)C3(C)CCC12O (stereo not drawn) [Compound 7, 6β,9α,17β-Trihydroxy-2α,17α-dimethyl-5α-androstane-3-one]",< 50%,< 50%,–,–,< 50%,139 to 141 °C,40.2 ± 3.3 µg/mL,–,–
"CC(=O)O.CNC(=N)NCCC[C@H](N)C(=O)O [LNMMA, N^G monomethyl L-arginine acetate, reference compound]",–,–,–,–,–,–,–,24.2 ± 0.8 µg/mL,–
"COc1cccc2c1C(=O)c1c(O)c3c(c(O)c1C2=O)C[C@@](O)(C(=O)CO)C[C@@H]3O[C@H]1C[C@H](N)[C@H](O)[C@H](C)O1 [doxorubicin, reference compound]",–,–,–,–,–,–,–,–,0.76 ± 0.05 µg/mL
